Where two headings read alike, the source gives them in different places.
Experiments:
CB1-R [1] = conditions: cited from earlier work
[2] = as reported in brain studies; cited from earlier work
CB1-R [3] = molecular target: CB1-R (Mus musculus, UniProt P47746); assay: Rimonabant blocking study of [^11C]-OMAR uptake in obese mice; assay type: in vivo
myocardial CB1-R [4] = molecular target: myocardial CB1-R (Mus musculus, UniProt P47746); assay: [^11C]-OMAR dynamic micro-PET/CT, myocardial OMAR retention in mice; assay type: in vivo; conditions: for myocardial OMAR retention: median [range]
Chain of myocardial CB1-R (Mus musculus, UniProt P47746) (P47746 whole entry): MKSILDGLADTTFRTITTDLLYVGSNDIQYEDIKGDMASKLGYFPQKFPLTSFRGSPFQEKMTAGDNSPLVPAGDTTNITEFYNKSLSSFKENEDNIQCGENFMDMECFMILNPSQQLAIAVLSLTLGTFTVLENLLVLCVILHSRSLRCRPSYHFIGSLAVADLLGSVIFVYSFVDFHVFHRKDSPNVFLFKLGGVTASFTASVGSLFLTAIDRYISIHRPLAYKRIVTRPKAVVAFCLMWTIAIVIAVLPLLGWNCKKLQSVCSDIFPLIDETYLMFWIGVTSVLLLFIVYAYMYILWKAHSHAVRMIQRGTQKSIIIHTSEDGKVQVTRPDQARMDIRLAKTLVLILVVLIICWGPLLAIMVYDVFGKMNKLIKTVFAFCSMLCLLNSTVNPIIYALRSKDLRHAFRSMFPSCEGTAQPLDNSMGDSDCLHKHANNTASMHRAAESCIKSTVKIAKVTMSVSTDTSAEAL

myocardial CB1-R [5] = molecular target: myocardial CB1-R (Homo sapiens, UniProt P21554); assay: [^11C]-OMAR PET/CT, myocardial retention index of OMAR in humans; assay type: in vivo; conditions: median (range)
Chain of myocardial CB1-R (Homo sapiens, UniProt P21554) (P21554 whole entry): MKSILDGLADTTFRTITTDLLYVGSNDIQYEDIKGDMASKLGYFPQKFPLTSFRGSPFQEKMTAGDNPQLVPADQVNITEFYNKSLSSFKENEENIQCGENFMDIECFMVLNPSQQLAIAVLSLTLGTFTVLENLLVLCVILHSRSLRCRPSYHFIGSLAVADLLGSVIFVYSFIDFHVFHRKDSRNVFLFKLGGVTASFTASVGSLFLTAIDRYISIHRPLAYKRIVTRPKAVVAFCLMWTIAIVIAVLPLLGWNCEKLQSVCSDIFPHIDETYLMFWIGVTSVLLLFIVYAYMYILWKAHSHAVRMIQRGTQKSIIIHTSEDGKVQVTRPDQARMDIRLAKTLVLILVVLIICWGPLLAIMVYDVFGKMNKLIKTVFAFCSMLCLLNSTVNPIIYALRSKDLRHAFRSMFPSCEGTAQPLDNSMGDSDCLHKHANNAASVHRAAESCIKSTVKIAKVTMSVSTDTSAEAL

[6] = obese mice, intravenous, median (range)
[7] = median (range)

Chain of CB1-R (Mus musculus, UniProt P47746) (P47746 whole entry): as the sequence (P47746 whole entry) above

## [11CH3]Oc1ccc(-c2c(C#N)c(C(=O)NN3CCCCC3)nn2-c2ccc(Cl)cc2Cl)cc1 [[^11C]-OMAR]
CB1-R [1]; brain
  blocking of [^11C]-OMAR uptake reported for brain studies: about 75%
CB1-R [1]; previous blocking studies in the brain
  binding potential in the brain: about 2
[2]
  radioactivity related to unchanged [^11C]-OMAR: at least 94%
CB1-R [3]; 5 mg/kg dose of rimonabant, heart
  [^11C]-OMAR uptake that could not be blocked: about 42%
CB1-R [3]; myocardial blocking study
  baseline-to-block ratio of myocardial [^11C]-OMAR uptake: about 2.4
  binding potential: > 1
Myocardial CB1-R [4]; heart, ob/ob vs lean control mice, micro-PET/CT
  fold higher [^11C]-OMAR retention in obese versus lean mice: 8 fold
Myocardial CB1-R [4]; normal-weight mice
  myocardial OMAR retention: 0.13 %/min
Myocardial CB1-R [4]; obese mice
  binding potential of [^11C]-OMAR to myocardial CB1-R: 6.4
  myocardial OMAR retention: 8.29 %/min
Myocardial CB1-R [5]; AOB (advanced obesity)
  OMAR retention (absolute left ventricular): 5.68 (1.88–6.89) %/min
Myocardial CB1-R [5]; CON (normal-weight control subjects)
  OMAR retention (absolute left ventricular): 0.47 (0.13–1.31) %/min
[6]; 5 min
  [^11C]-OMAR uptake, Blood: 1.19 (1.10–1.33) %ID/g Tissue
  [^11C]-OMAR uptake, Cerebellum: 2.43 (1.72–2.74) %ID/g Tissue
  [^11C]-OMAR uptake, Heart: 4.63 (4.00–5.23) %ID/g Tissue
[6]; 10 min
  [^11C]-OMAR uptake, Blood: 0.99 (0.91–1.19) %ID/g Tissue
  [^11C]-OMAR uptake, Cerebellum: 2.32 (2.11–2.50) %ID/g Tissue
  [^11C]-OMAR uptake, Thalamus: 1.62 (1.59–1.72) %ID/g Tissue
[6]; 15 min
  [^11C]-OMAR uptake, Blood: 0.99 (0.91–1.19) %ID/g Tissue
  [^11C]-OMAR uptake, Cerebellum: 2.53 (2.43–2.55) %ID/g Tissue
  [^11C]-OMAR uptake, Thalamus: 1.69 (1.59–1.72) %ID/g Tissue
[6]; 30 min
  [^11C]-OMAR uptake, Blood: 0.55 (0.39–0.65) %ID/g Tissue
  [^11C]-OMAR uptake, Cerebellum: 2.11 (1.25–2.38) %ID/g Tissue
  [^11C]-OMAR uptake, Heart: 2.14 (2.09–2.17) %ID/g Tissue
  [^11C]-OMAR uptake, Thalamus: 1.21 (1.18–1.21) %ID/g Tissue
[6]; 60 min
  [^11C]-OMAR uptake, Blood: 0.46 (0.46–0.47) %ID/g Tissue
  [^11C]-OMAR uptake, Cerebellum: 1.37 (1.25–1.51) %ID/g Tissue
  [^11C]-OMAR uptake, Heart: 1.55 (1.48–1.61) %ID/g Tissue
  [^11C]-OMAR uptake, Thalamus: 0.73 (0.58–0.77) %ID/g Tissue
[6]; 90 min
  [^11C]-OMAR uptake, Blood: 0.55 (0.51–0.68) %ID/g Tissue
  [^11C]-OMAR uptake, Cerebellum: 1.11 (1.05–2.00) %ID/g Tissue
  [^11C]-OMAR uptake, Heart: 1.40 (1.40–1.79) %ID/g Tissue
  [^11C]-OMAR uptake, Thalamus: 0.55 (0.38–0.98) %ID/g Tissue
[7]; AOB
  DBP after [^11C]-OMAR injection: 71 (56–78) mm Hg
  HR after [^11C]-OMAR injection: 72 (65–84) beats/min
  MAP after [^11C]-OMAR injection: 93 (76–96) mm Hg
  RPP after [^11C]-OMAR injection: 9,588 (7,325–10,960) mm Hg/min
  SBP after [^11C]-OMAR injection: 133 (116–140) mm Hg
[7]; CON
  DBP after [^11C]-OMAR injection: 62 (60–68) mm Hg
  HR after [^11C]-OMAR injection: 70 (61–77) beats/min
  MAP after [^11C]-OMAR injection: 81 (75–97) mm Hg
  SBP after [^11C]-OMAR injection: 120 (118–124) mm Hg

Reference: article PMC6178217 (JACC. Cardiovascular imaging, 2018)
